Measured values published in patent US7855292B2, “Sulfonamide compounds” (Janssen Pharmaceutica NV, priority 2004, dated 2010).

How the values were obtained:
CCK-1 receptor = biological target: T1, CCK-1 receptor (Homo sapiens, UniProt P32238); assay: CCK1 binding assay ([125I]-BH-CCK-8S displacement, CHO-K1 membranes); details: membranes of CHO-K1 cells stably transfected with the CCK-1 receptor, 20 pM [125I]-BH-CCK-8S, 0.3 μM PD-134,308 present, 60 min at 21±3° C.; for Ki: read-out: CCK1 pKi (converted)
T1 construct: expressed in transfected cells; host or cells: CHO-K1
T1 sequence (P32238 1-428): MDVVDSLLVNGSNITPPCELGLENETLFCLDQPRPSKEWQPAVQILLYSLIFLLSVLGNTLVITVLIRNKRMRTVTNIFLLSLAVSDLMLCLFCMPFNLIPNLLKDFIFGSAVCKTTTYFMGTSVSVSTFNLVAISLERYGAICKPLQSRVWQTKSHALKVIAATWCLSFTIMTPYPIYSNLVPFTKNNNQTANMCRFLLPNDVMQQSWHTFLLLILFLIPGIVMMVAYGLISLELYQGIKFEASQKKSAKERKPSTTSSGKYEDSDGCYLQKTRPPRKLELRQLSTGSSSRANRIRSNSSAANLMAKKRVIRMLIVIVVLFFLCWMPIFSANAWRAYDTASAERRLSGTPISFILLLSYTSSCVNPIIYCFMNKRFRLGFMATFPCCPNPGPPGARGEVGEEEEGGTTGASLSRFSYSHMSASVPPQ
How it was run: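 Membranes from CHO-K1 cells stably expressing CCK-1 incubated 1 h at 21±3° C with 20 pM [125I]-BH-CCK-8S in HEPES buffer pH 7.2 containing 0.3 μM PD-134,308 to block CCK-2. Bound radioactivity read by gamma counting after filtration. pKi derived via Cheng-Prusoff, with specific binding defined using 2-NAP.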

CCK2 receptor = biological target: T2, CCK2 receptor (Homo sapiens, UniProt P32239); assay: CCK2 binding assay ([125I]-BH-CCK-8S displacement, HEKZFP membranes); details: membranes of doxycycline-induced HEKZFP cells, 20 pM [125I]-BH-CCK-8S, 60 min at 21±3° C.; for Ki: read-out: CCK2 pKi (converted)
T2 construct: analyzed for ZFP expression as well as CCK2R induction upon addition of doxycycline to the culture medium; endogenous in cells
T2 sequence (P32239 1-447): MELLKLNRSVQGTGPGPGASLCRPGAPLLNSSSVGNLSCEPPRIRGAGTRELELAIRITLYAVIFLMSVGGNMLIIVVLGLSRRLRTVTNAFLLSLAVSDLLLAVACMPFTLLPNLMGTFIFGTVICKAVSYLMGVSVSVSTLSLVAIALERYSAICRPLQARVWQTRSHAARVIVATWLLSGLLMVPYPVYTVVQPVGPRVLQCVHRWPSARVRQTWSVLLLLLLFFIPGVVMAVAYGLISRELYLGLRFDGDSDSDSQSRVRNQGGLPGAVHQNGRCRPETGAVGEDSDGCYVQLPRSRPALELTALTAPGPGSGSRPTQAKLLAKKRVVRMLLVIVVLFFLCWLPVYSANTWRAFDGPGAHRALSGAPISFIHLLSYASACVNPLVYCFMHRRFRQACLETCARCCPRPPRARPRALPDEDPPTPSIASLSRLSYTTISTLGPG

SMILES | Ki (CCK-1 receptor) [nM] | Ki (CCK2 receptor) [nM] | CCK1 pKi (CCK-1 receptor) | CCK2 pKi (CCK2 receptor)
O=C(N[C@@H](Cc1ccc(Cl)c(Cl)c1)C(=O)NCc1ccccc1)c1ccc(Cl)cc1NS(=O)(=O)c1cccc2nsnc12 [Example 129, (S)-2-(Benzo[1,2,5]thiadiazole-4-sulfonylamino)-N-[1-benzylcarbamoyl-2-(3,4-dichloro-phenyl)-ethyl]-4-chloro-benzamide] | 100 | 631 | – | –
O=C(N[C@@H](Cc1ccc(Cl)c(Cl)c1)C(=O)NCc1ccc(F)cc1)c1ccc(Cl)cc1NS(=O)(=O)c1cccc2nsnc12 [Example 130, (S)-2-(Benzo[1,2,5]thiadiazole-4-sulfonylamino)-4-chloro-N-[2-(3,4-dichloro-phenyl)-(4-fluoro-benzylcarbamoyl)-ethyl]-benzamide] | 398 | 316 | – | –
O=C(N[C@@H](Cc1ccc(Cl)c(Cl)c1)C(=O)O)c1ccc(I)cc1NS(=O)(=O)c1cccc2nccnc12 [Example 132, (S)-3-(3,4-Dichloro-phenyl)-2-[4-iodo-2-(quinoxaline-5-sulfonylamino)-benzoylamino]-propionic acid] | 251 | 15.8 | – | –
O=C(N[C@@H](Cc1cc(F)c(Cl)cc1Cl)C(=O)O)c1ccc(I)cc1NS(=O)(=O)c1cccc2nsnc12 [Example 134, (S)-2-[2-(Benzo[1,2,5]thiadiazole-4-sulfonylamino)-4-iodo-benzoylamino]-3-(2,4-dichloro-5-fluoro-phenyl)-propionic acid] | 501 | 20 | – | –
COC(=O)[C@H](Cc1ccc(Cl)c(I)c1)NC(=O)c1ccc(I)cc1NS(=O)(=O)c1cccc2nsnc12 [Example 136, (S)-2-[2-(Benzo[1,2,5]thiadiazole-4-sulfonylamino)-4-iodo-benzoylamino]-3-(4-chloro-3-iodo-phenyl)-propionic acid methyl ester] | 39.8 | 316 | – | –
COC(=O)[C@H](Cc1ccc(Cl)c(I)c1)NC(=O)c1ccc(I)cc1NS(=O)(=O)c1cccc2nccnc12 [Example 137, (S)-3-(4-Chloro-3-iodo-phenyl)-2-[4-iodo-2-(quinoxaline-5-sulfonylamino)-benzoylamino]-propionic acid methyl ester] | 79.4 | 200 | – | –
O=C(N[C@@H](Cc1ccc(Cl)c(I)c1)C(=O)O)c1ccc(I)cc1NS(=O)(=O)c1cccc2nccnc12 [Example 138, (S)-3-(4-Chloro-3-iodo-phenyl)-2-[4-iodo-2-(quinoxaline-5-sulfonylamino)-benzoylamino]-propionic acid] | 100 | 50.1 | – | –
O=C(O)/C(=C/c1ccc(Cl)c(Cl)c1)NC(=O)c1cc(Cl)c(Cl)cc1NS(=O)(=O)c1cccc2nsnc12 [Example 144, (Z)-2-[2-(Benzo[1,2,5]thiadiazole-4-sulfonylamino)-4,5-dichloro-benzoylamino]-3-(3,4-dichloro-phenyl)-acrylic acid] | 501 | 50.1 | – | –
O=C(N[C@@H](Cc1ccc(Cl)c(Br)c1)C(=O)O)c1cc(Cl)c(Cl)cc1NS(=O)(=O)c1cccc2nccnc12 [Example 148, (S)-3-(3-Bromo-4-chloro-phenyl)-2-[4,5-dichloro-2-(quinoxaline-5-sulfonylamino)-benzoylamino]-propionic acid] | 251 | 63.1 | – | –

Next, values leading:

Ki (CCK-1 receptor) [nM] | Ki (CCK2 receptor) [nM] | CCK1 pKi (CCK-1 receptor) | CCK2 pKi (CCK2 receptor) | SMILES
158 | 15.8 | – | – | O=C(N[C@@H](Cc1ccc(Cl)c(Cl)c1)C(=O)O)c1ccc(Br)cc1NS(=O)(=O)c1cccc2nsnc12 [Example 131, (S)-2-[2-(Benzo[1,2,5]thiadiazole-4-sulfonylamino)-4-bromo-benzoylamino]-3-(3,4-dichloro-phenyl)-propionic acid]
398 | 31.6 | – | – | O=C(N[C@@H](Cc1ccc(Cl)cc1Cl)C(=O)O)c1ccc(I)cc1NS(=O)(=O)c1cccc2nsnc12 [Example 133, (S)-2-[2-(Benzo[1,2,5]thiadiazole-4-sulfonylamino)-4-iodo-benzoylamino]-3-(2,4-dichloro-phenyl)-propionic acid]
501 | 7.94 | – | – | O=C(N[C@@H](Cc1cccc(I)c1)C(=O)O)c1ccc(I)cc1NS(=O)(=O)c1cccc2nsnc12 [Example 135, (S)-2-[2-(Benzo[1,2,5]thiadiazole-4-sulfonylamino)-4-iodo-benzoylamino]-3-(3-iodo-phenyl)-propionic acid]
79.4 | 631 | – | – | O=C(N[C@@H](Cc1ccc(Cl)c(Cl)c1)C(=O)Nc1ccccc1)c1ccc(Cl)cc1NS(=O)(=O)c1cccc2nsnc12 [Example 139, (S)-2-(Benzo[1,2,5]thiadiazole-4-sulfonylamino)-4-chloro-N-[2-(3,4-dichloro-phenyl)-phenylcarbamoyl-ethyl]-benzamide]
126 | 316 | – | – | O=C(N[C@@H](Cc1ccc(Cl)c(Cl)c1)C(=O)N1CCCCC1)c1ccc(Cl)cc1NS(=O)(=O)c1cccc2nsnc12 [Example 140, (S)-2-(Benzo[1,2,5]thiadiazole-4-sulfonylamino)-4-chloro-N-[1-(3,4-dichloro-benzyl)-2-oxo-2-piperidin-1-yl-ethyl]-benzamide]
100 | 63.1 | – | – | O=C(N[C@@H](Cc1ccc(Cl)c(Cl)c1)C(=O)O)c1cc(Cl)c(Cl)cc1NS(=O)(=O)c1cccc2nsnc12 [Example 141, (S)-2-[2-(Benzo[1,2,5]thiadiazole-4-sulfonylamino)-4,5-dichloro-benzoylamino]-3-(3,4-dichloro-phenyl)-propionic acid]
158 | 631 | – | – | COC(=O)[C@H](Cc1ccc(Cl)c(Br)c1)NC(=O)c1ccc(Br)cc1NS(=O)(=O)c1cccc2nsnc12 [Example 142, (S)-2-[2-(Benzo[1,2,5]thiadiazole-4-sulfonylamino)-4-bromo-benzoylamino]-3-(3-bromo-4-chloro-phenyl)-propionic acid methyl ester]
158 | 200 | – | – | COC(=O)[C@H](Cc1ccc(F)c(Br)c1)NC(=O)c1ccc(Br)cc1NS(=O)(=O)c1cccc2nsnc12 [Example 143, (S)-2-[2-(Benzo[1,2,5]thiadiazole-4-sulfonylamino)-4-bromo-benzoylamino]-3-(3-bromo-4-fluoro-phenyl)-propionic acid methyl ester]
– | – | 6.7 | 7.4 | O=C(N[C@@H](Cc1ccc(Cl)c(Br)c1)C(=O)O)c1ccc(Cl)cc1NS(=O)(=O)c1cccc2nsnc12 [Example 145, (S)-2-[2-(Benzo[1,2,5]thiadiazole-4-sulfonylamino)-4-chloro-benzoylamino]-3-(3-bromo-4-chloro-phenyl)-propionic acid]
251 | 25.1 | – | – | O=C(N[C@@H](Cc1ccc(Cl)c(Br)c1)C(=O)O)c1ccc(Cl)cc1NS(=O)(=O)c1cccc2nccnc12 [Example 146, (S)-3-(3-Bromo-4-chloro-phenyl)-2-[4-chloro-2-(quinoxaline-5-sulfonylamino)-benzoylamino]-propionic acid]
158 | 39.8 | – | – | O=C(N[C@@H](Cc1ccc(Cl)c(Br)c1)C(=O)O)c1cc(Cl)c(Cl)cc1NS(=O)(=O)c1cccc2nsnc12 [Example 147, (S)-2-[2-(Benzo[1,2,5]thiadiazole-4-sulfonylamino)-4,5-dichloro-benzoylamino]-3-(3-bromo-4-chloro-phenyl)-propionic acid]
200 | 200 | – | – | COC(=O)[C@H](Cc1ccc(F)c(Br)c1)NC(=O)c1ccc(Cl)cc1NS(=O)(=O)c1cccc2nsnc12 [Example 149, (S)-2-[2-(Benzo[1,2,5]thiadiazole-4-sulfonylamino)-4-chloro-benzoylamino]-3-(3-bromo-4-fluoro-phenyl)-propionic acid methyl ester]
79.4 | 251 | – | – | COC(=O)[C@H](Cc1ccc(F)c(Br)c1)NC(=O)c1cc(Cl)c(Cl)cc1NS(=O)(=O)c1cccc2nsnc12 [Example 150, (S)-2-[2-(Benzo[1,2,5]thiadiazole-4-sulfonylamino)-4,5-dichloro-benzoylamino]-3-(3-bromo-4-fluoro-phenyl)-propionic acid methyl ester]
